In publication PMC7909954 (eLife, 2021):
Several values for one entry are separate records, joined by “and”; a condition that tells them apart may be missing. Equal entries are not always repeated. Entries after “also recorded” stand apart in the source; their conditions may differ.

What was measured:
MOR [1] = target: T1, MOR (Homo sapiens, UniProt P35372)
SERT = target: T2, SERT (Homo sapiens, UniProt P31645); assay: Radioligand binding counter-screen (NIMH PDSP)
T2 construct: NIMH Psychoactive Drug Screening Program
T2 sequence (P31645 whole entry, species assumed): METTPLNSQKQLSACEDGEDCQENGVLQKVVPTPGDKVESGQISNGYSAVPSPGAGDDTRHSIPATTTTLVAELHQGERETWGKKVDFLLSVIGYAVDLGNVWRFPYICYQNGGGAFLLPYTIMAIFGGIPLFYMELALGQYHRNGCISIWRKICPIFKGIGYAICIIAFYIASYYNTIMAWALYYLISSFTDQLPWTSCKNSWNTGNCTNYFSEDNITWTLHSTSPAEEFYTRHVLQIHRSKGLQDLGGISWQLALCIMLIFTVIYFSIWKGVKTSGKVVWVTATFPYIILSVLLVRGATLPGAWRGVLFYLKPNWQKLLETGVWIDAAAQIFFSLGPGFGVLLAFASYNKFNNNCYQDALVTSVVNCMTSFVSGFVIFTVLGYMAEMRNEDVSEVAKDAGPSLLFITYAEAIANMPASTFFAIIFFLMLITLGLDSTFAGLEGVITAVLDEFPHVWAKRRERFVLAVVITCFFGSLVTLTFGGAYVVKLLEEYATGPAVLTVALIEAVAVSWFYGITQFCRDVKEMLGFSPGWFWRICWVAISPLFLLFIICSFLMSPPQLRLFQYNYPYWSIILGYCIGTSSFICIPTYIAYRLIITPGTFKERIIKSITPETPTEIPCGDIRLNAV

[2] = target: all screened targets except SERT and α2C-adrenoreceptors; assay: Radioligand binding counter-screen (NIMH PDSP), remaining targets; settings: non-opioid targets
α2C-adrenoreceptors = target: T3, α2C-adrenoreceptors (Homo sapiens, UniProt P18825); assay: Radioligand binding counter-screen (NIMH PDSP)
T3 construct: NIMH Psychoactive Drug Screening Program
T3 sequence (P18825 1-462): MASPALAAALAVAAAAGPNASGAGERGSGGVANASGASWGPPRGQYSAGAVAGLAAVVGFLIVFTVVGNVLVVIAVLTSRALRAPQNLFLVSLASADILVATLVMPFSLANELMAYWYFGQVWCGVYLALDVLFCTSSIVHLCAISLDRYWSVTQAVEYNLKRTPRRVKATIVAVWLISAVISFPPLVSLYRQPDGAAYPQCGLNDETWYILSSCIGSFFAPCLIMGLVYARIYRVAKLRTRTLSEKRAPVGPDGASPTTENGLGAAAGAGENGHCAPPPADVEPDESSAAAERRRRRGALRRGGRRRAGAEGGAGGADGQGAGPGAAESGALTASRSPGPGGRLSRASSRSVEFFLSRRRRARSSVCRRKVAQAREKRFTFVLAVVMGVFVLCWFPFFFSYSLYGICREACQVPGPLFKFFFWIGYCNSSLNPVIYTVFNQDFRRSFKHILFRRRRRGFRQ

mDOR = mDOR (Mus musculus, UniProt P32300); settings: binding assays
mDOR, sequence (P32300 whole entry): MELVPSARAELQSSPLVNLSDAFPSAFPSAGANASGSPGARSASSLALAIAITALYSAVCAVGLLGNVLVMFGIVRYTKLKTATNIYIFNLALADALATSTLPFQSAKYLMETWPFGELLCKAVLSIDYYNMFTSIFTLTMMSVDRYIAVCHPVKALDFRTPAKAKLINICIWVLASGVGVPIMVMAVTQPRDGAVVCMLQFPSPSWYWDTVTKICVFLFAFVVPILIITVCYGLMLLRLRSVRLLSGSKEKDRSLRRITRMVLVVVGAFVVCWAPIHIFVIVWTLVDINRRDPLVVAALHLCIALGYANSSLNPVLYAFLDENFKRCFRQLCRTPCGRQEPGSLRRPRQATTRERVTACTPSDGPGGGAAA

rKOR = rKOR (Rattus norvegicus, UniProt P34975); assay: cell-based
rKOR, sequence (P34975 whole entry): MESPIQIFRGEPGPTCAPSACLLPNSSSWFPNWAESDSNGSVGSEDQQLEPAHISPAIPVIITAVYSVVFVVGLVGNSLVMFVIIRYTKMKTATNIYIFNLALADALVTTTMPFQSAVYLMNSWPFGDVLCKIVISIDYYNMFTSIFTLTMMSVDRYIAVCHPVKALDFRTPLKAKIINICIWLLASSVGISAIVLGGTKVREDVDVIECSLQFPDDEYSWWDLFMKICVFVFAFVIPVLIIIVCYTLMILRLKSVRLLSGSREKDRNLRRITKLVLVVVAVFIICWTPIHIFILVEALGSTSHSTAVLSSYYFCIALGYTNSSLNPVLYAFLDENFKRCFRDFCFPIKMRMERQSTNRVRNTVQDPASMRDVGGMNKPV

KOR [3] = target: T4, KOR (Homo sapiens, UniProt P41145)
T4 sequence (P41145 whole entry): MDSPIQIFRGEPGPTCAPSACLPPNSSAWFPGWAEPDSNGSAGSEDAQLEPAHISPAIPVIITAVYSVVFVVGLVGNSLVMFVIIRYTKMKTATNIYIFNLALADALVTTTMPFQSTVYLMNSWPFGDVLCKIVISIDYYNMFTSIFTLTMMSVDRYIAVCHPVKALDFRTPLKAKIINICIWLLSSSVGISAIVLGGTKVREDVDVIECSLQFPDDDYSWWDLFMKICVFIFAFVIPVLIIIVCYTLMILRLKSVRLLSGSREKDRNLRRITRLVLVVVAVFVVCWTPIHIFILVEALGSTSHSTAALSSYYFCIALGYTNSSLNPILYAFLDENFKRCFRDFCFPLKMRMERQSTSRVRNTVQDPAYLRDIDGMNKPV

330 non-olfactory GPCRs = assay: PRESTO-Tango GPCRome β-arrestin recruitment off-target screen; assay type: cell-based; settings: 3 μM, follow-up concentration–response
Description: To identify potential off-target activity of MP1207, we used the National Institutes of Mental Health Psychoactive Drug Screen Program. MP1207 was first tested for activity against 330 non-olfactory GPCRs using the PRESTO-Tango GPCRome screening β-arrestin recruitment assay at 3 μM MP1207. The activity at each receptor was measured in quadruplicate.
Screening of compounds was accomplished using previously described methods with several modifications ([Kroeze et al., 2015]). First, HTLA cells were plated in DMEM with 2% dialyzed FBS and 10 U/mL penicillin-streptomycin. Next, the cells were transfected using an in-plate PEI method ([Longo et al., 2013]). PRESTO-Tango receptor DNAs were resuspended in OptiMEM and hybridized with PEI prior to dilution and distribution into 384-well plates and subsequent addition to cells. After overnight incubation, drugs diluted in DMEM with 1% dialyzed FBS were added to cells without replacement of the medium. The remaining steps of the PRESTO-Tango protocol were followed as previously described.
Appendix 1—figure 6. […] MP1207 was screened against 330 non-olfactory GPCRs for agonism in the arrestin recruitment TANGO assay. […] MP1207 induces an increase in signal twofold over basal at opioid receptors predominantly at KOR and DOR and much less at MOR.

MOR [4] = target: T1, MOR; assay: Radioligand binding counter-screen (NIMH PDSP); parameters: NIMH Psychoactive Drug Screening Program
mKOR = mKOR (Mus musculus, UniProt P33534); assay: biochemical
mKOR, sequence (P33534 whole entry): as the sequence (P34975 whole entry) above, with E11D, A17S, P51S, V308A counted along it

KOR [5] = target: T4, KOR; assay: cell-based
Y312W-hKOR = Y312W-hKOR (Homo sapiens, UniProt P41145, Y312W); assay: cell-based
Y312W-hKOR, sequence (P41145 whole entry Y312W): as the sequence (P41145 whole entry) above, with Y312W counted along it

mMOR = mMOR (Mus musculus, UniProt P42866); assay: cell-based; parameters: expressed in transfected cells; host or cells: HEK-293T
mMOR, sequence (P42866 whole entry): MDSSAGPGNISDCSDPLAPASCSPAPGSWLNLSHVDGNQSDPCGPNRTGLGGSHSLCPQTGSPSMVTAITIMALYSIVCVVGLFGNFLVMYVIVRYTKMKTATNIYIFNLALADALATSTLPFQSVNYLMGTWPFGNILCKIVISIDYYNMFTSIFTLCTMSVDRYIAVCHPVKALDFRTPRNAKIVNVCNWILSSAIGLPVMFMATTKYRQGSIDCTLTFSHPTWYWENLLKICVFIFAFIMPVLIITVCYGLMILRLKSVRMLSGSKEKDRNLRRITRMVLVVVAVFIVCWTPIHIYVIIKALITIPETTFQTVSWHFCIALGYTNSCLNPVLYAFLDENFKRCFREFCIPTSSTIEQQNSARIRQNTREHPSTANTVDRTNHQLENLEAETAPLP

[6] = transduction coefficient log(T/KA)

T1 sequence (P35372 whole entry): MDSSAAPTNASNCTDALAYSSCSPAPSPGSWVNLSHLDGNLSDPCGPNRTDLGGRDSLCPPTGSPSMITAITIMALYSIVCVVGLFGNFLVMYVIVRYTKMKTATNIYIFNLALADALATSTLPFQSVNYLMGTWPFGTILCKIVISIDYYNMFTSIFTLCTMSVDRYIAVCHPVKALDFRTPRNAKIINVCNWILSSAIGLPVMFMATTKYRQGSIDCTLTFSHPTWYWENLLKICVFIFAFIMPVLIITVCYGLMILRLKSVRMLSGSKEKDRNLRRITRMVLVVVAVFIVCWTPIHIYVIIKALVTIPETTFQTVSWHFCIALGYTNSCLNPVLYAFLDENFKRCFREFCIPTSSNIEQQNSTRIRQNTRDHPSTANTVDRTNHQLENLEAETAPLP

SMILES: NCc1cccc(C(=O)N[C@@H]2CCC3C4Cc5ccc(O)c6c5[C@@]3(CCN4CC3CC3)C2O6)c1 (stereo partly drawn) [MP1207, 3-(Aminomethyl)-N-((7R,12bS)−3-(cyclopropylmethyl)−9-hydroxy-2,3,4,4a,5,6,7,7a-octahydro-1H-4,12-methanobenzofuro[3,2-e]isoquinolin-7-yl)benzamide]
- arrestin recruitment at hMOR (in words) (MOR [1]): completely abolished
- Ki (SERT): 356 nM
- selectivity for MOR and KOR over the nearest non-opioid target (SERT; from counter-screen Ki): 900 fold
- Ki [2]: > 10000 nM
- Ki (α2C-adrenoreceptors): 2980 nM
- selectivity for MOR and KOR over DOR (mDOR): more than 40 fold
- EC50 (rKOR): 1.13 nM
- Emax (rKOR; HEK-293T, read-out: Emax% G protein activation (BRET) rKOR): 32 ± 2.3%
- ΔΔlog RA (cAMP-Tango) hKOR (KOR [3]): 0.903±0.026
- Bias factor (cAMP-Tango) hKOR (KOR [3]; >1 G protein bias, <1 arrestin bias, vs U50,488h): 8
- Log RA cAMP hKOR (KOR [3]; [6]): 9.902±0.004
- LogRA Tango hKOR (KOR [3]; [6]): 7.97±0.024
- ΔlogRA Tango hKOR (KOR [3]; vs U50,488h): -0.176±0.025
- ΔlogRA cAMP hKOR (KOR [3]; vs U50,488h): 0.73±0.006
- agonism at 330 non-olfactory GPCRs (in words) (330 non-olfactory GPCRs): selective for opioid receptors; also recorded: no potent activity was confirmed
- Ki (MOR [4]): 0.39 nM
- EC50 (mKOR; EC50 mKOR [35S]GTPγS, ± SEM): 1.5 nM and 1.52 nM
- Emax (mKOR; read-out: Emax mKOR [35S]GTPγS): 39.3 ± 1.3%
- EC50 (KOR [5]; EC50 cAMP inhibition hKOR): 0.11 nM
- Emax (KOR [5]; HEK-293T, read-out: Emax% cAMP inhibition hKOR): 90 ± 1.7%
- EC50 (KOR [5]; pEC50 cAMP inhibition hKOR, ± SEM): 0.105 nM
- EC50 (Y312W-hKOR): 0.16 nM
- Emax (Y312W-hKOR; read-out: Emax% cAMP inhibition Y312W-hKOR): 95 ± 1.8%
- arrestin recruitment at mMOR (in words) (mMOR): No recruitment of βarrestin-2
